For the data set the following is noted: 6 days at 80° C. On the procedure:
Nitrogen of 99% purity (vol/vol) purity was used as an inert gas. The samples were stored at 80° C. for 6 days, and then the assay of impurities was determined by High Performance Liquid Chromatography.
The oxygen content in the vials was determined by gas chromatography with a mass spectrometric detector (GC/MS).
The degradation products were determined by […] Agilent Technologies (Waldbronn, Germany) model HP 1100. Chromatograms were recorded by a UV detector at 250 nm. The column Chromolit Performance RP-18e 100×4.6 mm (Merck, Darmstadt, Germany) and the gradient of mobile phase A: 20 mM ammonium acetate pH 4.0, 5% (v/v) tetrahydrofuran and 25% (v/v) acetonitrile and the gradient of mobile phase B: 20 mM ammonium acetate pH 4.0, 5% (v/v) tetrahydrofuran and 70 (v/v) acetonitrile were used. The composition of the mobile phase was changed so that initially and to minute 2 there was 25% of mobile phase B (75% of mobile phase A), from minute 2 to minute 4.7 the composition of the mobile phase changed linearly to 100% mobile phase B and it remained such to the end of the analysis at minute 5.5. Flow rate of the mobile phase was 7 ml/min. […] The samples of atorvastatin calcium were dissolved in the solvent 200 mM Tris p H 7, 40% (v/v) acetonitrile of the concentration 0.5 mg/ml.

Where [1] appears, read: oxygen content in atmosphere 0.6 %.
The mark [2] stands for this setting: oxygen content in atmosphere 2.8 %, hemi calcium salt.
Where [3] appears, read: oxygen content in atmosphere 12.2 %, hemi calcium salt.
Where [4] appears, read: oxygen content in atmosphere 21.3 %, hemi calcium salt.

From patent publication US20090012150A1, “Stablized Pharmaceutical Composition Comprising an Amorphous Active Substance” (priority 2002, published 2009) come the findings set out here.

Where two headings read alike, the source gives them in different places.

Regarding `CC(C)c1c(C(=O)Nc2ccccc2)c(-c2ccccc2)c(-c2ccc(F)cc2)n1CC[C@@H](O)C[C@@H](O)CC(=O)O.CC(C)c1c(C(=O)Nc2ccccc2)c(-c2ccccc2)c(-c2ccc(F)cc2)n1CC[C@@H](O)C[C@@H](O)CC(=O)O.CC(C)c1c(C(=O)Nc2ccccc2)c(-c2ccccc2)c(-c2ccc(F)cc2)n1CC[C@@H](O)C[C@@H](O)CC(=O)[O-].CC(C)c1c(C(=O)Nc2ccccc2)c(-c2ccccc2)c(-c2ccc(F)cc2)n1CC[C@@H](O)C[C@@H](O)CC(=O)[O-].[Ca+2]` (relative stereo) [Crystalline atorvastatin calcium, (R—(R*, R*))-2-(4-fluorophenyl)-β,δ-dihydroxy-5-(1-methylethyl)-3-phenyl-4((phenylamino)carbonyl)-1H-pyrrole-1-heptanoic acid hemi calcium salt], the “Increase in the assay of degradation products in % in reference to starting active substance” value was 0% under setting [1], 0% under setting [2], 0.02% under setting [3] and 0.05% under setting [4].

With `CC(C)c1c(C(=O)Nc2ccccc2)c(-c2ccccc2)c(-c2ccc(F)cc2)n1CC[C@@H](O)C[C@@H](O)CC(=O)O.CC(C)c1c(C(=O)Nc2ccccc2)c(-c2ccccc2)c(-c2ccc(F)cc2)n1CC[C@@H](O)C[C@@H](O)CC(=O)O.CC(C)c1c(C(=O)Nc2ccccc2)c(-c2ccccc2)c(-c2ccc(F)cc2)n1CC[C@@H](O)C[C@@H](O)CC(=O)[O-].CC(C)c1c(C(=O)Nc2ccccc2)c(-c2ccccc2)c(-c2ccc(F)cc2)n1CC[C@@H](O)C[C@@H](O)CC(=O)[O-].[Ca+2]` (relative stereo) [Amorphous atorvastatin calcium, (R—(R*, R*))-2-(4-fluorophenyl)-β,δ-dihydroxy-5-(1-methylethyl)-3-phenyl-4((phenylamino)carbonyl)-1H-pyrrole-1-heptanoic acid hemi calcium salt], the “Increase in the assay of degradation products in % in reference to starting active substance” value reads like this: under setting [1], 0%; under setting [2], 0.13%; under setting [3], 0.49%; under setting [4], 0.89%.
